Results taken from publication PMC10115881, “Disrupting the α-synuclein-ESCRT interaction with a peptide inhibitor mitigates neurodegeneration in preclinical models of Parkinson’s disease” (Nature Communications, 2023).

Columns and labels:
A53T a-syn = test: Human a-syn immunoblot of cortical neuron lysates; type: cell-based; conditions: neuronal lysates
Protocol: Pregnant rats (E17) of the Sprague-Dawley strain were purchased from Envigo. Embryos were surgically removed from the mothers and cortices dissected in Hanks Balanced salt solution (Gibco). The meninges were removed, and cells were dissociated using a papain dissociation system (Worthington) before being resuspended in Neurobasal medium A supplemented with antibiotic-antimycotic solution (Gibco), L-glutamine substitute (GlutaMAX™; Gibco) and factor B27 (Gibco). Cells were plated on poly-D-lysine coated glass coverslips at a density of 5 × 10^5 cells/well, or on poly-D-lysine coated six-well cell culture plates at a density of 2 × 10^6 cells/well, and incubated at 37 °C in 5% CO2 with half media changes every 3 days. Cells were transduced with A53T a-syn or EV AAVs at 2 days post-isolation at a MOI of 3000. After 3 days, media containing AAV vectors were removed. […] Cells were fixed with 4% paraformaldehyde (PFA) for immunofluorescence staining or lysed for immunoblotting at 8 days post-isolation.
Infected neurons were scraped from 6-well dishes and lysed with RIPA buffer containing protease inhibitor cocktail (Roche). The Triton-X-100 soluble fraction was then separated from the insoluble pellet by centrifugation. Protein concentration was quantified using the DC protein assay (BioRad). […]

full-length YFP = test: YFP fluorescence in rat cortical neurons, full length YFP; type: cell-based
From the text: Adeno-associated virus (AAV) of a 1/2 serotype was used to express A53T a-syn (AAV-A53T), a truncated version of A53T a-syn lacking amino acids 103–140 (Δa-syn(103–140)), and WT a-syn, fused to either the N-terminal half of YFP (AAV-V1S) or the C-terminal half of YFP (AAV-SV2), all under the control of the CAG promoter, a hybrid of the chicken beta-actin (CBA) promoter fused with the cytomegalovirus (CMV) immediate early enhancer sequence (GeneDetect Ltd.)[46].
Pregnant rats (E17) of the Sprague-Dawley strain were purchased from Envigo. Embryos were surgically removed from the mothers and cortices dissected in Hanks Balanced salt solution (Gibco). […]
Confocal images of primary cortical neurons, iPSC-derived dopaminergic neurons, and LAMP1 staining within the SN were processed using Imaris software (Oxford instruments). […] Mean pixel intensity per GFP^+ cell (for experiments using GFP-tagged peptides) or RFP^+ cell (for experiments using RFP-tagged peptides) was calculated for a-syn or LAMP1 signal using the software’s surfaces module. The software’s surfaces module was used to identify GFP^+/NeuN^+ cells, and number of pS129 a-syn^+ puncta per GFP^+/NeuN^+ cortical neuron was counted using the software’s spots module. Mean pixel intensity per RFP^+/NeuN^+ cortical neuron was calculated for Rab7, cathepsin B, or cathepsin D signals using the software’s surfaces module. […]

[1] = system: WT a-syn-mediated cytotoxicity in HEK293 cells; test: Pooled lentiviral 7-mer peptide cytotoxicity screen, WT a-syn + MG132; type: cell-based, human;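 for Slope Norm Reads: reads normalized to total peptide reads per sample with scalar factor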
From the text: (§1) We used a lentiviral library of 50,549 7-mer peptides enriched in PPI motifs[13] on a green fluorescent protein (GFP) scaffold (Fig. 1A). We infected cells in a pooled format and the amino acid sequence of each peptide served as its own barcode. By using a low multiplicity of infection followed by puromycin selection, each infected cell expressed one unique GFP-peptide. We screened for peptides that reduced a-syn-mediated cytotoxicity or a-syn oligomers in parallel (Fig. 1A). To cause cytotoxicity relevant to PD, we induced proteostatic stress in HEK293 cells by inhibiting the proteasome with MG132 and overexpressing human WT a-syn associated with idiopathic PD in one screen or the more toxic mutant A53T a-syn associated with familial PD in a second screen. This combination of a-syn overexpression and pharmacological proteasome inhibition led to death of most cells, with only those that expressed a protective peptide surviving. By extracting genomic DNA from the surviving cells and amplifying the peptide coding sequences, we identified the protective peptides (Fig. 1A). To detect a-syn oligomers, we used a protein fragment complementation assay (PCA) of a-syn oligomerization in HEK293 cells. In this assay, human A53T a-syn was fused to either the C- or N-terminal half of yellow fluorescent protein (YFP). No fluorescence is detectable while a-syn exists in monomers but, when a-syn oligomerizes, the two halves of YFP come in close enough proximity to form a functional, spontaneously fluorescent protein. […] Our screens yielded 10 hits (Table S1). The hit with the most reads (i.e., the most abundant) was the same peptide in all screens: IPIQLKA (named PDpep1) (Table S1). We validated the cytoprotective effects of PDpep1 in HEK293 cells overexpressing WT or A53T a-syn (Figs. 1B, S1A), as well as its ability to reduce WT or A53T a-syn oligomers in a luciferase-based PCA[18]–[20] compared to a scrambled control peptide (Figs. 1C, S1B).
(§2) HEK293T cells (ATCC, CRL-3216) were maintained in DMEM supplemented with 10% FBS and 1% pen/strep/glutamine, and the appropriate selection antibiotics when required. Lentiviruses were made in a 15 cm dish format by transfecting packaging cells (HEK293T) with a three-plasmid system (expression vector, psPAX2 and pMD2.G) and using Polyjet DNA transfection reagent (FroggaBio, SL100688.1). Viral transduction of HEK293T cells were performed with a multiplicity of infection (MOI) of 0.3. Infected cells were selected in puromycin-containing medium to eliminate uninfected cells and three aliquots of cells were collected for sampling of the initial (T0) cell population. Cells were treated with MG132 at concentrations of 0, 10, 25, or 50 µM. For the cell viability screen, surviving cells were collected and gDNA was extracted for identification of peptide inhibitors of cell toxicity. For the inhibition of a-syn aggregation screen, a protein fragment complementation assay (PCA) was used by transfecting cells with split YFP-a-syn constructs following stable expression of the peptides. Cells were sorted based on their YFP fluorescence intensities with a FACSVantage SE cell sorter (BD Bioscience) and gDNA was extracted for identification of peptides.
(§3) Genomic DNA (gDNA) from peptide expressing cells at different time-points was extracted using QIAamp DNA Blood Mini Kit. PCR amplifications of peptides from gDNA in parallel with the lentiviral plasmid library (naïve library) were performed using indexed Illumina PCR primers to incorporate both the Illumina adapter sequences and indexing sequences. Each 50 μl reaction contained 3.2 μg of template, 2× PCR buffer, 2× enhancer solution, 300 μM each dNTP, 900 nM each of Adapter A (5′-[…]-[…]-3′) and Adapter B (5′-[…]-[…]-3′), 1 mM MgSO4, 3.75 units of Platinum Pfx polymerase, and water to 50 μl. […]

[2] = system: A53T a-syn-mediated cytotoxicity in HEK293 cells; test: Pooled lentiviral 7-mer peptide cytotoxicity screen, A53T a-syn + MG132; type: cell-based, human;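 for Slope Norm Reads: reads normalized to total peptide reads per sample with scalar factor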
From the text: as §1, §2, §3

[3] = Illumina reads, average Phred >30

Row | Substance | Effect on total A53T a-syn protein (A53T a-syn) | Effect on YFP fluorescence, full-length YFP (full-length YFP) | Reads 10M MG132 [1] | Reads 25M MG132 [1] | Reads 50M MG132 [1] | Slope Norm Reads [1] | Reads 0M MG132 [1, 3] | Reads 10M MG132 [2] | Reads 25M MG132 [2] | Reads 50M MG132 [2] | Slope Norm Reads [2] | Reads 0M MG132 [2, 3]
1 | DEEIERQLKALG [PDpep1.3] | corresponding reduction in total A53T a-syn protein levels | had no effect on fluorescence of YFP alone |  |  |  |  |  |  |  |  |  | 
2 | IPIQLKA [PDpep1, initial screen hit peptide IPIQLKA] |  |  | 1 | 1629 | 3375 | 3.45 | 90 | 20 | 3859 | 13308 | 40.54 | 168
